Results on six molecules are retold here after patent US9326506B2, “Preparation method, agricultural composition and applications of natural brassinolide analogs” (CHENGDU NEWSUN CROPSCIENCE CO., LTD, priority 2012, dated 2016).

Each structure is given as a SMILES string.

The test system of this experiment is rice. Description: Rice leaf bending assay (leaf inclination angle). The class given is in vivo. The following applies: for Average angle / Total angle: 48 hr; for Total angle: sum of 20 rice; for Effects on leaf inclination compared among analogues: in the case of high concentrations. The source says:
According to a rice leaf bending assay, we measured leaf inclination angle of rice to determine effects of the natural brassinolide analogues on the enhancement of plant development. The larger the leaf inclination angle of rice, the more effects on plant development. The detailed assay procedure is as follows:
The natural brassinolide analogues, BR1, BR2, BR3, BR4, BR5 and BR6, used herein, were those prepared by the method of Example 1. And BR1, BR2, BR3, BR4, BR5 and BR6 were mixed into a mixture of brassinolide analogues (referred to as “BRs”, in which the weight ratio of BR1:BR2:BR3:BR4:BR5:BR6 is 0.4:0.4:0.4:0.4:0.4:98). Respectively the analogues and the mixture were dissolved into 95% (V/V) ethanol solution, and then diluted with pure water to 1 mg/L, 0.1 mg/L, 0.01 mg/L, 0.001 mg/L and 0.0001 mg/L. In addition, pure water was used as a control.
After rice seeds were disinfected by using 5% sodium hypochlorite solution treatment, they were rinsed with distilled water until their pH>7, placed into a petri dish in a dark incubator, and cultured by using water at 30° C.±2° C. for 9 days. Then the nine-day-old etiolated seedlings of rice were cut around the center of the base of second leaf to segments with 1 cm leaf and 1 cm leaf sheath. The leaf segments were floated in distilled water, placed in a dark incubator, cultured at 30° C.±2° C. for 24 hr, and then dried by a filter paper. The dried leaf segments were respectively immersed in the above solutions containing different concentrations of the natural brassinolide analogues or pure water, and cultured in a dark incubator at 30° C.±2° C. for 48 hr. Every solution or pure water contained the leaf segments from 20 rice. Then the inclination angle between the second leaf and the leaf sheath of the leaf segments was measured by a protractor.

With `CC(C)(O)CC[C@@H](O)[C@](C)(O)[C@H]1CC[C@@]2(O)[C@@H]3CC(=O)[C@@H]4C[C@@H](O)[C@@H](O)C[C@]4(C)[C@H]3CC[C@]12C` [BR6], the “Effects on leaf inclination compared among analogues” value (“Effects … compared among analogues” below) is “more than those of BR2, BR3 and BR4”. Where the note is “0.0001 mg/l”, this molecule showed an Average angle of 4.25 degree and a Total angle of 85 degree. Under “0.001 mg/l”, the Average angle is recorded as 7.1 degree and the Total angle is given as 142 degree. For the same molecule, for the setting “0.01 mg/l”, the Average angle is 23 degree and the Total angle stood at 460 degree. In addition, where the note is “0.1 mg/l”, the Average angle stood at 35.5 degree and the Total angle is listed as 710 degree. In addition, for the setting “1 mg/l”, the Average angle was 109 degree and the Total angle worked out at 2180 degree.
On to `C=C(C(C)C)[C@@H](O)[C@H](O)[C@@H](C)[C@H]1CCC2C3COC(=O)C4C[C@H](O)[C@H](O)C[C@]4(C)C3CC[C@@]21C` (stereo partly drawn) [BR3], for which the Average angle by setting is: (0.0001 mg/l) 3.84 degree; (0.001 mg/l) 6.8 degree; (0.01 mg/l) 12.15 degree; (0.1 mg/l) 21 degree; (1 mg/l) 65.3 degree. Further, the Total angle (0.0001 mg/l) is reported as 76.8 degree; the Total angle (0.001 mg/l) worked out at 136 degree; the Total angle (0.01 mg/l) is listed as 243 degree; the Total angle (0.1 mg/l) is 420 degree; the Total angle (1 mg/l) was 1306 degree.
As for `CC(C)C[C@@H](O)[C@H](O)[C@@H](C)[C@H]1CCC2C3CC(=O)C4C[C@H](O)[C@H](O)C[C@]4(C)C3CC[C@@]21C` (stereo partly drawn) [BR5], the “Effects … compared among analogues” value was “more than those of BR2, BR3 and BR4”. Besides, under “0.0001 mg/l”, the Average angle was found to be 3.9 degree and the Total angle stood at 78 degree. Besides, under “0.001 mg/l”, the Average angle was determined as 9.3 degree and the Total angle is on record as 186 degree. Under “0.01 mg/l”, this molecule displayed an Average angle of 20.05 degree and a Total angle of 401 degree. Under “0.1 mg/l”, this molecule came in with an Average angle of 35 degree and a Total angle of 700 degree. Under “1 mg/l”, this molecule came in with an Average angle of 110 degree and a Total angle of 2200 degree.
With `CC(C)[C@H](C)[C@@H](O)[C@H](O)[C@@H](C)[C@H]1CCC2C3CC(=O)C4C[C@H](O)CC[C@]4(C)C3CC[C@@]21C` (stereo partly drawn) [BR4], the Average angle reads like this: (0.0001 mg/l) 3.8 degree; (0.001 mg/l) 6.5 degree; (0.01 mg/l) 12.25 degree; (0.1 mg/l) 21.4 degree; (1 mg/l) 64 degree. Besides, the Total angle by setting is: (0.0001 mg/l) 76 degree; (0.001 mg/l) 130 degree; (0.01 mg/l) 245 degree; (0.1 mg/l) 428 degree; (1 mg/l) 1280 degree.
On to `CC[C@@H](C(C)C)[C@@H](O)[C@H](O)[C@@H](C)[C@H]1CCC2C3COC(=O)C4C[C@H](O)[C@H](O)C[C@]4(C)C3CC[C@@]21C` (stereo partly drawn) [BR2], for which the Average angle reads like this: (0.0001 mg/l) 4.025 degree; (0.001 mg/l) 7.28 degree; (0.01 mg/l) 13.25 degree; (0.1 mg/l) 21.15 degree; (1 mg/l) 71.25 degree. The Total angle (0.0001 mg/l) is on record as 80.5 degree; the Total angle (0.001 mg/l) is listed as 145.6 degree; the Total angle (0.01 mg/l) was 265 degree; the Total angle (0.1 mg/l) is 423 degree; the Total angle (1 mg/l) was 1425 degree.
For `CC(C)[C@H](C)[C@@H](O)[C@H](O)[C@@H](C)[C@H]1CCC2C3COC(=O)C4C[C@H](O)[C@H](O)C[C@]4(C)C3CC[C@@]21C` (stereo partly drawn) [BR1], the “Effects … compared among analogues” value was “more than those of BR2, BR3 and BR4”. Under “0.0001 mg/l”, the Average angle worked out at 5.34 degree and the Total angle came to 106.8 degree. For the setting “0.001 mg/l”, this molecule had an Average angle of 11.27 degree and a Total angle of 225.4 degree. For the same molecule, where the note is “0.01 mg/l”, the Average angle stood at 21.05 degree and the Total angle was determined as 421 degree. Under “0.1 mg/l”, this molecule returned an Average angle of 36.25 degree and a Total angle of 725 degree. For the setting “1 mg/l”, the Average angle amounted to 110.75 degree and the Total angle worked out at 2215 degree.
